Measured values published in patent US6893650B1, “N2-phenylamidine derivatives” (Bayer Cropscience GmbH, priority 1999, dated 2005).

System: Leptosphaeria nodorum
Assay: glume blotch, spray or stem-base drench of test plants, infection visually estimated; also: key: 1 is little or no control; 2 is moderate control; 3 is good to total control
Format: in vivo
Conditions: concentration of 500 ppm (w/v) or less

Compound	score of 1 to 3 (control, degree of infection visually estimated)
Cc1cc(Oc2cccc(C(F)(F)F)c2)c(C)cc1N=CN(C)C [Compound 1]	2
CC(=Nc1cc(C)c(Oc2cccc(C(F)(F)F)c2)cc1C)N(C)C [Compound 2]	2
CC(=Nc1cc(C)c(SCc2cccc(C(F)(F)F)c2)cc1C)N(C)C [Compound 5]	2
Cc1cc(Oc2cccc(Cl)c2)c(C)cc1N=CN(C)C [Compound 7]	2
Cc1cc(Oc2cccc(C(C)(C)C)c2)c(C)cc1N=CN(C)C [Compound 8]	2
COc1cc(N=CN(C)C)c(Br)cc1Oc1cccc(C(F)(F)F)c1 [Compound 15]	2
COc1ccccc1Oc1cc(C)c(N=CN(C)C)cc1C [Compound 27]	2
Cc1cc(Oc2cccc(C#N)c2)c(C)cc1N=CN(C)C [Compound 29]	2
Cc1cc(Oc2cccc(C(F)(F)F)c2)c(C)cc1N=CN1CCOCC1 [Compound 35]	2
CCN(C=Nc1cc(C)c(Oc2cccc(C(F)(F)F)c2)cc1C)CC [Compound 37, N,N-Diethyl-N′-[4-(3-trifluoromethylphenoxy)-2,5-xylyl]formamidine]	2
Cc1cc(Oc2cccc(C(F)(F)F)c2)c(C)cc1N=CN1CCCC1 [Compound 41]	2
Cc1cc(Oc2cccc(C(F)(F)F)c2)c(C)cc1N=CN1CCCCC1 [Compound 43]	2
CCN(C)C=Nc1cc(C)c(Oc2cccc(C(F)(F)F)c2)cc1C [Compound 45, N-Ethyl-N-methyl-N′-[4-(3-trifluoromethylphenoxy)-2,5-xylyl]formamidine]	2
Cc1cc(Oc2nc(-c3ccccc3)ns2)c(C)cc1N=CN(C)C [Compound 48, N,N-Dimethyl-N′-[4-(3-phenyl-1,2,4-thiadiazol-5-yloxy)-2,5-xylyl]formamidine]	2
COc1cccc(Oc2cc(C)c(N=CN(C)C)cc2C)c1 [Compound 56]	2
CCNC=Nc1cc(C)c(Oc2cccc(C(F)(F)F)c2)cc1C [Compound 59]	2
Cc1cc(Oc2ccc(C(C)(C)C)cc2)c(C)cc1N=CN(C)C [Compound 61]	2
Cc1cc(Oc2nc(Br)ns2)c(C)cc1N=CN(C)C [Compound 72]	2
CCN(C)C=Nc1cc(C)c(Oc2cccc(C(C)(C)C)c2)cc1C [Compound 100]	2
CCC(C)c1ccc(Oc2cc(C)c(N=CN(C)C)cc2C)cc1 (stereo not drawn) [Compound 130]	2
Cc1cc(OC(=O)c2sc3ccccc3c2Cl)c(C)cc1N=CN(C)C [Compound 160]	2

Compound	score of 1 to 3 (control, degree of infection visually estimated)
CCC(C)(C)c1ccc(Oc2cc(C)c(N=CN(C)C)cc2C)cc1 [Compound 170]	2
CCc1ccc(Oc2cc(C)c(N=CN(C)C)cc2C)cc1 [Compound 181]	2
Cc1cc(Oc2nc3cc(C(F)(F)F)ccc3s2)c(C)cc1N=CN(C)C [Compound 194]	2
Cc1cc(Oc2nc(-c3ccccc3)ns2)c(C(C)C)cc1N=CN(C)C [Compound 208]	2
Cc1cc(C(C#N)c2cccc(C(F)(F)F)c2)c(C)cc1N=CN(C)C (stereo not drawn) [Compound 214]	2
C#CCOc1ccc(Oc2cc(C)c(N=CN(C)C)cc2C)cc1 [Compound 235]	2
Cc1cc(Oc2nc(-c3ccccc3)ns2)c(C)cc1N=CN1CCCCC1 [Compound 246]	2
Cc1cc(Oc2cccc(C(C)(C)C)c2)c(C)cc1N=CN(C)C(C)C [Compound 283]	2
C=CCN(C)C=Nc1cc(C)c(Oc2cccc(C(C)(C)C)c2)cc1C [Compound 284]	2
Cc1cc(OCc2ccc(OCC3CCCCC3)cc2)c(C)cc1N=CN(C)C [Compound 290]	2
Cc1cc(Oc2ccc(OC(C)C)cc2)c(C)cc1N=CN(C)C [Compound 303]	2
CCN(C)C=Nc1cc(C)c(Oc2cccc(Cl)c2)cc1C [Compound 310]	2
CCN(C)C=Nc1cc(C)c(Oc2ccc(C(C)C)cc2)cc1C [Compound 311]	2
CCN(C)C=Nc1cc(C)c(Oc2cccc(OC)c2)cc1C [Compound 312]	2
CCN(C)C=Nc1cc(C)c(Oc2cccc(Oc3ccccc3)c2)cc1C [Compound 325]	2
CCN(C)C=Nc1cc(C)c(Oc2ccc(C(C)(C)C)cc2)cc1C [Compound 326]	2
Cc1cc(Oc2nc(-c3ccc(Cl)c(Cl)c3)cs2)c(C)cc1N=CN(C)C [Compound 351]	2
CCN(C)C=Nc1cc(C)c(Oc2ccc(Cl)c(C(F)(F)F)c2)cc1C [Compound 364]	2
Cc1cc(C)nc(Oc2cccc(Oc3cc(C)c(N=CN(C)C)cc3C)c2)n1 [Compound 369]	2
Cc1cc(Oc2cccc(C3CCCC3)c2)c(C)cc1N=CN(C)C [Compound 378]	2
COC(C)(C)c1cccc(Oc2cc(C)c(N=CN(C)C)cc2C)c1 [Compound 392]	2
